Test results: PubChem BioAssay AID1259407 (Chemical Carcinogenesis Research Information System (CCRIS), 2018)
Calls of active or inactive are those of the source. How the calls were made is not given here.

Test system: CCRIS mutagenicity, Ames/micronucleus/aberration tests
Test: CCRIS mutagenicity studies
[1] = Test System: AMES SALMONELLA TYPHIMURIUM, Strain/Indicator: TA98, Metabolic Activation: NONE, Method: STANDARD PLATE
[2] = Test System: AMES SALMONELLA TYPHIMURIUM, Strain/Indicator: TA98, Metabolic Activation: RAT, LIVER, S-9, AROCLOR 1254, Method: STANDARD PLATE
[3] = Test System: AMES SALMONELLA TYPHIMURIUM, Strain/Indicator: TA100, Metabolic Activation: NONE, Method: STANDARD PLATE
[4] = Test System: AMES SALMONELLA TYPHIMURIUM, Strain/Indicator: TA100, Metabolic Activation: RAT, LIVER, S-9, AROCLOR 1254, Method: STANDARD PLATE
[5] = Test System: AMES SALMONELLA TYPHIMURIUM, Strain/Indicator: TA1535, Metabolic Activation: NONE, Method: STANDARD PLATE
[6] = Test System: AMES SALMONELLA TYPHIMURIUM, Strain/Indicator: TA1535, Metabolic Activation: RAT, LIVER, S-9, AROCLOR 1254, Method: STANDARD PLATE
[7] = Test System: AMES SALMONELLA TYPHIMURIUM, Strain/Indicator: TA1537, Metabolic Activation: NONE, Method: STANDARD PLATE
[8] = Test System: AMES SALMONELLA TYPHIMURIUM, Strain/Indicator: TA1537, Metabolic Activation: RAT, LIVER, S-9, AROCLOR 1254, Method: STANDARD PLATE

C=CC(=O)OCCCCCCOC(=O)C=C
mutagenic call (Test System: AMES SALMONELLA TYPHIMURIUM, Strain/Indicator: TA97, Metabolic Activation: HAMSTER, LIVER, S-9, AROCLOR 1254 (10%), Method: PREINCUBATION): inactive; negative | mutagenic call (Test System: AMES SALMONELLA TYPHIMURIUM, Strain/Indicator: TA97, Metabolic Activation: HAMSTER, LIVER, S-9, AROCLOR 1254 (30%), Method: PREINCUBATION): inactive; negative | mutagenic call (Test System: AMES SALMONELLA TYPHIMURIUM, Strain/Indicator: TA97, Metabolic Activation: NONE, Method: PREINCUBATION): inactive; negative | mutagenic call (Test System: AMES SALMONELLA TYPHIMURIUM, Strain/Indicator: TA97, Metabolic Activation: RAT, LIVER, S-9, AROCLOR 1254 (10%), Method: PREINCUBATION): inactive; negative | mutagenic call (Test System: AMES SALMONELLA TYPHIMURIUM, Strain/Indicator: TA97, Metabolic Activation: RAT, LIVER, S-9, AROCLOR 1254 (30%), Method: PREINCUBATION): inactive; negative | mutagenic call (Test System: AMES SALMONELLA TYPHIMURIUM, Strain/Indicator: TA98, Metabolic Activation: HAMSTER, LIVER, S-9, AROCLOR 1254 (10%), Method: PREINCUBATION): inactive; negative | mutagenic call (Test System: AMES SALMONELLA TYPHIMURIUM, Strain/Indicator: TA98, Metabolic Activation: HAMSTER, LIVER, S-9, AROCLOR 1254 (30%), Method: PREINCUBATION): inactive; negative | mutagenic call (Test System: AMES SALMONELLA TYPHIMURIUM, Strain/Indicator: TA98, Metabolic Activation: NONE, Method: PREINCUBATION): inactive; negative | mutagenic call [1]: inactive; negative | mutagenic call (Test System: AMES SALMONELLA TYPHIMURIUM, Strain/Indicator: TA98, Metabolic Activation: RAT, LIVER, S-9, AROCLOR 1254 (10%), Method: PREINCUBATION): inactive; negative | mutagenic call (Test System: AMES SALMONELLA TYPHIMURIUM, Strain/Indicator: TA98, Metabolic Activation: RAT, LIVER, S-9, AROCLOR 1254 (30%), Method: PREINCUBATION): inactive; negative | mutagenic call [2]: inactive; negative | mutagenic call (Test System: AMES SALMONELLA TYPHIMURIUM, Strain/Indicator: TA98, Metabolic Activation: RAT, LIVER, S-9, SODIUM PHENOBARBITAL, Method: STANDARD PLATE): inactive; negative | mutagenic call (Test System: AMES SALMONELLA TYPHIMURIUM, Strain/Indicator: TA100, Metabolic Activation: HAMSTER, LIVER, S-9, AROCLOR 1254 (10%), Method: PREINCUBATION): inactive; negative | mutagenic call (Test System: AMES SALMONELLA TYPHIMURIUM, Strain/Indicator: TA100, Metabolic Activation: HAMSTER, LIVER, S-9, AROCLOR 1254 (30%), Method: PREINCUBATION): inactive; negative | mutagenic call (Test System: AMES SALMONELLA TYPHIMURIUM, Strain/Indicator: TA100, Metabolic Activation: NONE, Method: PREINCUBATION): inactive; negative | mutagenic call [3]: inactive; negative | mutagenic call (Test System: AMES SALMONELLA TYPHIMURIUM, Strain/Indicator: TA100, Metabolic Activation: RAT, LIVER, S-9, AROCLOR 1254 (10%), Method: PREINCUBATION): inactive; negative | mutagenic call (Test System: AMES SALMONELLA TYPHIMURIUM, Strain/Indicator: TA100, Metabolic Activation: RAT, LIVER, S-9, AROCLOR 1254 (30%), Method: PREINCUBATION): inactive; negative | mutagenic call [4]: inactive; negative | mutagenic call (Test System: AMES SALMONELLA TYPHIMURIUM, Strain/Indicator: TA100, Metabolic Activation: RAT, LIVER, S-9, SODIUM PHENOBARBITAL, Method: STANDARD PLATE): inactive; negative | mutagenic call (Test System: AMES SALMONELLA TYPHIMURIUM, Strain/Indicator: TA1535, Metabolic Activation: HAMSTER, LIVER, S-9, AROCLOR 1254 (10%), Method: PREINCUBATION): inactive; negative | mutagenic call (Test System: AMES SALMONELLA TYPHIMURIUM, Strain/Indicator: TA1535, Metabolic Activation: HAMSTER, LIVER, S-9, AROCLOR 1254 (30%), Method: PREINCUBATION): inactive; negative | mutagenic call (Test System: AMES SALMONELLA TYPHIMURIUM, Strain/Indicator: TA1535, Metabolic Activation: NONE, Method: PREINCUBATION): inactive; negative | mutagenic call [5]: inactive; negative | mutagenic call (Test System: AMES SALMONELLA TYPHIMURIUM, Strain/Indicator: TA1535, Metabolic Activation: RAT, LIVER, S-9, AROCLOR 1254 (10%), Method: PREINCUBATION): inactive; negative | mutagenic call (Test System: AMES SALMONELLA TYPHIMURIUM, Strain/Indicator: TA1535, Metabolic Activation: RAT, LIVER, S-9, AROCLOR 1254 (30%), Method: PREINCUBATION): inactive; negative | mutagenic call [6]: inactive; negative | mutagenic call (Test System: AMES SALMONELLA TYPHIMURIUM, Strain/Indicator: TA1535, Metabolic Activation: RAT, LIVER, S-9, SODIUM PHENOBARBITAL, Method: STANDARD PLATE): inactive; negative | mutagenic call (Test System: AMES SALMONELLA TYPHIMURIUM, Strain/Indicator: TA1537, Metabolic Activation: HAMSTER, LIVER, S-9, AROCLOR 1254 (10%), Method: PREINCUBATION): inactive; negative | mutagenic call (Test System: AMES SALMONELLA TYPHIMURIUM, Strain/Indicator: TA1537, Metabolic Activation: NONE, Method: PREINCUBATION): inactive; negative | mutagenic call [7]: inactive; negative | mutagenic call (Test System: AMES SALMONELLA TYPHIMURIUM, Strain/Indicator: TA1537, Metabolic Activation: RAT, LIVER, S-9, AROCLOR 1254 (10%), Method: PREINCUBATION): inactive; negative | mutagenic call [8]: inactive; negative | mutagenic call (Test System: AMES SALMONELLA TYPHIMURIUM, Strain/Indicator: TA1537, Metabolic Activation: RAT, LIVER, S-9, SODIUM PHENOBARBITAL, Method: STANDARD PLATE): inactive; negative | mutagenic call (Test System: AMES SALMONELLA TYPHIMURIUM, Strain/Indicator: TA1538, Metabolic Activation: NONE, Method: STANDARD PLATE): inactive; negative | mutagenic call (Test System: AMES SALMONELLA TYPHIMURIUM, Strain/Indicator: TA1538, Metabolic Activation: RAT, LIVER, S-9, AROCLOR 1254, Method: STANDARD PLATE): inactive; negative | mutagenic call (Test System: AMES SALMONELLA TYPHIMURIUM, Strain/Indicator: TA1538, Metabolic Activation: RAT, LIVER, S-9, SODIUM PHENOBARBITAL, Method: STANDARD PLATE): inactive; negative

O=C(O)c1cc(Cl)cc2cccnc12
mutagenic call [1]: inactive; negative | mutagenic call [2]: active; positive | mutagenic call [3]: inactive; negative | mutagenic call [4]: active; positive | mutagenic call [5]: inactive; negative | mutagenic call [6]: inactive; negative | mutagenic call [7]: inactive; negative | mutagenic call [8]: active; positive

CCCCCCCC/C=C\CCCCCCCCCCCC(=O)NCCCCCCCCCCCCCCCCCC
mutagenic call (Test System: AMES SALMONELLA TYPHIMURIUM, Strain/Indicator: TA97, Metabolic Activation: NONE, Method: STANDARD PLATE): inactive; negative | mutagenic call (Test System: AMES SALMONELLA TYPHIMURIUM, Strain/Indicator: TA97, Metabolic Activation: S-9, Method: STANDARD PLATE): inactive; negative | mutagenic call [1]: inactive; negative | mutagenic call (Test System: AMES SALMONELLA TYPHIMURIUM, Strain/Indicator: TA98, Metabolic Activation: S-9, Method: STANDARD PLATE): inactive; negative | mutagenic call [3]: inactive; negative | mutagenic call (Test System: AMES SALMONELLA TYPHIMURIUM, Strain/Indicator: TA100, Metabolic Activation: S-9, Method: STANDARD PLATE): inactive; negative | mutagenic call (Test System: AMES SALMONELLA TYPHIMURIUM, Strain/Indicator: TA102, Metabolic Activation: NONE, Method: STANDARD PLATE): inactive; negative | mutagenic call (Test System: AMES SALMONELLA TYPHIMURIUM, Strain/Indicator: TA102, Metabolic Activation: S-9, Method: STANDARD PLATE): inactive; negative | mutagenic call (Test System: E.COLI, Strain/Indicator: WP2 (PKM101), Metabolic Activation: NONE, Method: STANDARD PLATE): inactive; negative | mutagenic call (Test System: E.COLI, Strain/Indicator: WP2 (PKM101), Metabolic Activation: S-9, Method: STANDARD PLATE): inactive; negative
